Test results: patent US10653667B2, “Drug for preventing, treating or preventing metastasis of giant cell tumor that occurs in bone or soft parts, chondrosarcoma, or osteosarcoma, local injection for arterial embolization, and artificial bone” (NIPPON CHEMIPHAR CO., LTD, priority 2013, dated 2020)
Values joined by “and” are separate entries in the source; they are usually repeats but may differ in a detail not shown here. Identical values can stand only once. “Also recorded” adds a separate entry of the source.

Columns and labels:
[1] = system: GCTB cultured cells (case 1, case 2; GCT-1, GCT-2); conditions: GCTB derived from a patient; inventors' earlier reports; cited from earlier work
[2] = system: synovial cells derived from rheumatism patients; conditions: cited from earlier work
[3] = system: PPARγ expression in cells of giant cell tumor of tendon sheath (GCTT); assay: PPARγ immunostaining of GCTT cells; assay type: cell-based, human; conditions: zaltoprofen 400 μM or troglitazone 200 μM
[4] = system: SW1353 cells; assay: Cell migration of human chondrosarcoma cell line SW1353; assay type: cell-based; conditions: 72 hours
Protocol: The analysis of cell migration was performed by using a 6-well plate of TPP according to the method described in Takeuchi A, et al., Cancer Science, 104:740-749, 2013 (Low molecular weight heparin suppresses receptor for advanced glycation end products-mediated expression of malignant phenotype in human fibrosarcoma cells). Cells of the human chondrosarcoma cell line, SW1353, were cultured in the same manner as that of Example 1 until they became sub-confluent, and the cells were delaminated in a width of 1 mm using a micropipette tip (200 μl). […] Then, area of the cells migrated to the region where the cells were delaminated was measured by using Image J software (http://rsb.info.nih.gov/ij/index.html) (FIGS. 73 and 74).

[5] = system: PPARγ expression in H-EMC-SS cells; conditions: inventors' earlier reports; cited from earlier work
[6] = system: GCTB cultured cells of the case 1; conditions: GCTB derived from a patient; inventors' earlier reports; cited from earlier work
[7] = system: HOS cells; assay: Suppression of proliferation of human bone sarcoma cell line HOS (CCK-8); assay type: cell-based; conditions: 72 hours
Protocol: Cells of the human bone sarcoma cell line, HOS (purchased from American Type Culture Collection), were cultured in the same manner as that of Example 1 until they became sub-confluent. Zaltoprofen was added to the cells at concentrations of 25, 50, 100, 200 and 400 μM, color development was performed with Cell Counting Kit-8 (CCK-8, Dojindo) 72 hours thereafter, and absorbance was measured at 450 nm further 3 hours thereafter (FIG. 72).

[8] = system: PPARγ expression in GCTB cultured cells; conditions: GCTB derived from a patient; inventors' earlier reports; cited from earlier work
[9] = system: SW1353 cells; assay: Cell invasion of SW1353 cells cultured beforehand with or without GW9662; assay type: cell-based, human
Protocol: Cells of the human chondrosarcoma cell line, SW1353, were cultured in the same manner as that of Example 1 until they became sub-confluent, then, GW9662, which is an irreversible antagonist of PPARγ, was added to the cells at a final concentration of 1 μM, and the cells were cultured for 60 minutes. Then, zaltoprofen was added to the cells at various concentrations of 200, 300, and 400 μM, cell invasion was measured with Matrigel™ Invasion Chamber (BD Bioscience, catalog number 354480) 24 hours afterward, and the result was compared with the degree of cell invasion observed with addition of only DMSO not dissolving GW9662 (FIG. 78).

[10] = system: GCTB cultured cells (case 1, case 2; GCT-1, GCT-2); assay: Suppression of cell proliferation of GCTB cultured cells (Cell Counting Kit-8, WST assay); assay type: cell-based, human; conditions: drug at various concentrations, CCK-8 24 hours after addition
Protocol: Tissue Int., 75:71-77), repeatedly subcultured until there were only spindle-shaped cells, which state was gradually attained from the state that there were also multinucleated giant cells observed in an early stage, and then used for the following analysis. […] Zaltoprofen was added as a solution in DMSO (dimethyl sulfoxide) prepared at a concentration 1000 times higher than the final concentration, and the solution was added in a volume of 0.1% of the volume of the medium. The same shall apply to the other drugs used in the following examples. […]

[11] = system: pigmented villonodular synovitis (PVNS); assay: Curative effect of zaltoprofen (Soleton Tablet) on PVNS patients; assay type: in vivo, human
Protocol: Soleton Tablet 80 (generic name: zaltoprofen, 80 mg, Nippon Chemiphar) was administered to a patient with giant cell tumor of bone (GCTB), patient with giant cell tumor of tendon sheath (GCTT), or patient with pigmented villonodular synovitis (PVNS) at a dose of 3 tablets per day (one tablet was administered in the morning, at noon, and in the evening), and the tumor size was evaluated by MRI every several months.
PVNS patients were administered with 3 tablets per day (one tablet was administered in the morning, at noon, and in the evening) of Soleton Tablet 80 (generic name; zaltoprofen, 80 mg, Nippon Chemiphar). Four weeks after the start of the administration, the tumor size was evaluated by imaging based on simple Roentgen contrast method, X-ray CT, and MRI (nuclear magnetic resonance imaging). Then, the tumors were excised from patients for whom surgical operation was possible, administration of zaltoprofen was continued at a dose of 240 mg per day (one 80 mg tablet was administered at the time of breakfast, lunch, and supper), and the tumor size was evaluated by imaging based on simple Roentgen contrast method, X-ray CT, and MRI (nuclear magnetic resonance imaging) every 16 weeks. Also for patients for whom surgical operation was difficult, administration of 240 mg zaltoprofen per day (one 80 mg tablet was administered at the time of breakfast, lunch, and supper) was continued, and the tumor size was evaluated by imaging based on simple Roentgen contrast method, X-ray CT, and MRI (nuclear magnetic resonance imaging) every 8 weeks.

[12] = system: PPARγ expression in cells of pigmented villonodular synovitis (PVNS); assay: PPARγ immunostaining of PVNS cells; assay type: cell-based, human; conditions: zaltoprofen 400 μM or troglitazone 200 μM
[13] = system: OUMS-27 cells; assay: Suppression of proliferation of human chondrosarcoma cell line OUMS-27 (CCK-8); assay type: cell-based; conditions: at concentrations of 200 μM and 400 μM (50-400 μM tested); 72 hours
[14] = recurrence of PVNS in the right knee (person; case b), after two months

CC(C(=O)O)c1ccc2c(c1)CC(=O)c1ccccc1S2 (centres unmarked) [zaltoprofen]
suppression of proliferation of cells of giant cell tumor of bone [1]: suppressed proliferation | activation of PPARγ [2]: activated PPARγ | apoptosis [2]: caused apoptosis | suppression of proliferation of the cells [2]: suppress proliferation | expression of PPARγ (PPARγ-positive images) [3]: expression of PPARγ was successfully observed | suppression of cell migration of SW1353 cells ([4]; 400 μM zaltoprofen): about 40% | suppression of cell migration of SW1353 cells ([4]; all set concentrations, concentration-dependent): suppressed the cell migration | expression of PPARγ in H-EMC-SS cells [5]: promoted expression of PPARγ | differentiation of the cells into fat cells [6]: induced differentiation of the cells into fat cells | suppression of proliferation of HOS cells ([7]; 400 μM zaltoprofen): about 60% | suppression of cell proliferation of HOS cells ([7]; at 100 μM, 200 μM and 400 μM, concentration-dependent (25-400 μM tested)): suppressed | expression of PPARγ in the cells of giant cell tumor of bone [8]: promoted expression of PPARγ | suppression of cell invasion of SW1353 cells ([9]; 400 μM zaltoprofen, 24 hours, without GW9662): higher than 80% | suppression of the cell invasion after preincubation with GW9662 ([9]; 400 zaltoprofen, GW9662 1 μM): substantially eliminated by GW9662 | suppression of cell proliferation (live cell count, absorbance at 450 nm) [10]: concentration-dependent suppression of the cell proliferation; also recorded: suppressed proliferation | diameter of PVNS after taking zaltoprofen ([11]; PVNS case a, shoulder joint, about 50 weeks, 27.7 mm before): 7.9 mm | diameter (major axis) of PVNS after taking zaltoprofen ([11]; PVNS case c, right knee joint, about 35 weeks, 59.5 mm before): 47.2 mm and 48.0 mm | KPS score after taking zaltoprofen ([11]; PVNS cases a and b, score 70 before): 100 | change of PVNS ([11]; PVNS cases a, b, c, d, e, and f, no treatment except zaltoprofen): shrank | KPS score after taking zaltoprofen ([11]; PVNS cases c and d, score 80 before): 90 | new metastasis during the taking of zaltoprofen ([11]; PVNS patients): any new metastasis of PVNS was not observed | recurrence during the taking of zaltoprofen after ablative operation ([11]; PVNS patients subjected to ablative operation): no recurrence of PVNS could be confirmed | shrinkage of PVNS in patients who took zaltoprofen ([11]; all the patients): shrinkage of PVNS could be confirmed in all the patients | number of cases judged to be partial response (PR) ([11]; among 11 PVNS cases for which the response rate was determined, 240 mg per day): one | cases in which the KPS score worsened ([11]; cases of PVNS who took zaltoprofen): no case in which the KPS score worsened | response judgement of all the PVNS patients who took zaltoprofen ([11]; human, in vivo): partial response (PR) or stable disease (SD) | MRI imaging effect ([11]; recurrence of PVNS in the right knee (case i), 3 tablets per day, after three months): attenuation of the MRI imaging effect | pain and knee-joint excursion ([11]; recurrence of PVNS in the right knee (case i), after three months): improvement was observed | pain [11, 14]: improvement of pain | tumor size by MRI [11, 14]: shrinkage of tumor | expression of PPARγ (PPARγ-positive images) [12]: expression of PPARγ was successfully observed | suppression of proliferation of OUMS-27 cells [13]: suppressed proliferation
